These results are taken from patent US12152031B2, “Biodefense agents” (priority 2018, dated 2024).

What all share (assay type): cell-based
The test system of one assay is Enterobacteriaceae.
Another assay deals with E. coli DH10B. The experiment in a line: microbe, parasite or virus in culture. As to conditions: Escherichia coli.
In assay [1] the test system is E. coli DH10B mcr-1 transformant. The experiment in a line: microbe, parasite or virus in culture. The following applies: Escherichia coli.
Another assay relates to P. aeruginosa. As to the kind of experiment: microbe, parasite or virus in culture. The following applies: Pseudomonas aeruginosa, read-out: MICs.

≈ marks a conversion by molar mass, not a printed value.

In the case of `CC(=N)NCC[C@@H]1CCC[C@@H](c2ccc(-n3cc4cc(-c5cc(CCC[C@@H](N)CO)cc(Cl)c5F)[nH]c4nc3=O)cc2F)N1` [RX-04C, N-(2-((2S,6S)-6-(4-(6-(5-((R)-4-amino-5-hydroxypentyl)-3-chloro-2-fluorophenyl)-2-oxo-2,7-dihydro-3H-pyrrolo[2,3-d]pyrimidin-3-yl)-2-fluorophenyl)piperidin-2-yl)ethyl)acetimidamide], in the assay on Enterobacteriaceae, the “peak of unimodal MIC distribution” value was 2 µg/mL. In addition, the MIC was 0.5 µg/mL (≈ 0.799 µM) in the assay on E. coli DH10B, 0.5 µg/mL (≈ 0.799 µM) in assay [1] and not below 16 µg/mL in the assay on P. aeruginosa.
